Results: ChEMBL document CHEMBL1152026, “Phosphonamidates and phosphonamidate esters as HIV-1 protease inhibitors” (Bioorg Med Chem Lett, 1991)

How the values were obtained:
[1] = The half-life period was determined; format: ADME
[2] = biological target: T1, Human immunodeficiency virus type 1 protease (Human immunodeficiency virus 1, UniProt Q72874); assay: Compound was evaluated for its binding affinity against HIV-1 protease
[3] = biological target: T1, Human immunodeficiency virus type 1 protease; assay: Compound was evaluated for its inhibitory activity against HIV-1 protease

Structure (SMILES) | half-life [1] [h] | Ki [2] [µM] | IC50 [3] [µM]
NC(=O)[C@H](Cc1ccccc1)NP(=O)(O)C(Cc1ccccc1)NC(=O)C(F)(F)F (stereo not given in full) | 30 | 45 | 105
NC(=O)[C@@H]1CCCN1P(=O)(O)C(Cc1ccccc1)NC(=O)C(F)(F)F (stereo not given in full) | 5 | 52 | 121
COP(=O)(N[C@@H](Cc1ccccc1)C(N)=O)C(Cc1ccccc1)NC(=O)C(F)(F)F (stereo not given in full) |  | 80 | 184
COP(=O)(C(Cc1ccccc1)NC(=O)C(F)(F)F)N1CCC[C@H]1C(N)=O (stereo not given in full) |  | 44 | 103
